According to patent US8784910B2, “Antimicrobial compositions” (Lonza Inc., priority 2002, dated 2014):

Tests used:
Type in all cases: cell-based
[1] = system: S. aureus (ATCC #6538), P. aeruginosa (ATCC #9027), and E. coli (ATCC #8739); test: Mixed bacterial challenge of preserved anionic protein shampoo (Examples 4 and 7); details: for Qb: concentration alone required for 100% retardation of the bacteria
Description: Each anionic shampoo sample in Table 3 below was tested as follows. A standardized mixed bacterial solution was prepared according to the following procedure. 3 agar stabs of S. aureus (ATCC #6538), P. aeruginosa (ATCC #9027), and E. coli (ATCC #8739) were separately incubated at about 35 EC for about 24 hours. Each stab was then washed with 3 mL of sterile 0.85% saline solution. The washes of the 3 stabs were pooled together to form an organism mixture. The absorbance of the organism mixture at 530 nm was adjusted to about 1.00 by adding saline. The spectrometer was calibrated with a saline blank. A 5 mL aliquot of the organism mixture was mixed together to produce the standardized mixed bacterial solution. Then, 40 g of each shampoo sample was inoculated with 0.2 mL of the standardized mixed bacterial solution and mixed. 1 g of the mixture was added to a sterile 20×150 mm screw cap test tube.
9 mL of sterile D/E neutralizer broth was added to the test tube and mixed to form a 10^−1 dilution. Serial dilutions were prepared through to a 10^−6 dilution with phosphate buffered water. The serial dilutions were plated onto Tryptic Soy Agar and incubated for 2 days at about 35 EC. Bacteria counts were performed after 0, 7, and 14 days.
The anionic protein shampoo composition was comprised of 35% by weight of sodium lauryl ether sulfate; 25% by weight of triethanolamine lauryl sulfate; 3% by weight coconut diethanolamide (cocamide DEA); 1% by weight of hydrolyzed collagen, available as Polypro 5000™ from Hormel Foods of Austin, Minn.; and 36% by weight of deionized water.
The cinnamaldehyde and other preservative containing samples were prepared by mixing the appropriate amounts of the preservatives and the aforementioned anionic protein shampoo composition and heating the mixture to about 50 EC for about 15 minutes.
Synergism for the cinnamaldehyde/Glydant 2000™ solutions in Table 8 against S. aureus, P. aeruginosa, and E. coli was calculated by the method described in C. E. Kull et al., A Mixtures of Quaternary Ammonium Compounds and Long-chain Fatty Acids as Antifungal Agents@, Applied Microbiology, 9:538-541 (1961). The synergism value (QA/Qa+QB/Qb) in Table 7 was determined. […] Qa is the concentration of cinnamaldehyde alone (in percent by weight) required to yield 100% retardation of the bacteria. QB is the concentration of Glydant 2000™ (in percent by weight) in the mixture, which yielded 100% retardation of the bacteria. Qb is the concentration of Glydant 2000™ alone (in percent by weight) required to yield 100% retardation of the bacteria.
When the value of (QA/Qa+QB/Qb) is less than one, the mixture is synergistic. Values for (QA/Qa+QB/Qb) of 1 and greater than 1, represent an additive effect and an antagonistic effect, respectively.

[2] = system: Staphylococcus aureus (ATCC #6538); test: Minimum Inhibitory Concentration (MIC), autodilutor, nutrient broth, 96 well plates (Example 8); details: Staphylococcus aureus, ATCC6538; 72 hours at 32 degree Celsius, approximately 10^6 cfu/g, visual turbidity; read-out: MIC for S. Aureus
Description: The Minimum Inhibitory Concentration (MIC) of the preservative mixtures was tested. The MIC is the lowest concentration of an ingredient that will inhibit the growth of an organism. This study was conducted using the Hamilton Micro Lab AT Plus Autodilutor Liquid handling System. The programs for the auto-dilutor were based on Lonza's Standard Application Method SAPM#412-01-1. The Hamilton Autodilutor was used to dilute the starting concentrations of the preservative combination by 50% using nutrient broth in 96 well micro titer plates and also to inoculate the microorganism in the test samples. This preservatives tested were Isocil™ (a blend of methyl isothiazolinone and methyl-chloro-isothiazolinone), Benzocil™ (benzisothiazolinone) and Lonzagard™ (benzethonium chloride), all of which are available from Lonza Inc. of Fair Lawn, N.J., in various concentrations and combinations with cinnamaldehyde. Controls were also included in each test plate. […] Results were determined by checking for growth in the test samples versus the control wells on each plate (visual determination of turbidity in the wells). […] Synergism values for the Isocil™/cinnamaldehyde and Benzocil™/cinnamaldehyde combinations were calculated from the MIC values reported in Table 11 by the method described in Kull, supra, referred to above, and are set forth in Tables 12 and 13, below.

[3] = system: S. aureus, P. aeruginosa, and E. coli; test: Mixed bacterial challenge of preserved GMS cream (Example 6)
Description: Each anionic shampoo sample in FIGS. 1-3 were tested as follows. […] Each stab was then washed with 3 mL of sterile 0.85% saline solution. The washes of the 3 stabs were pooled together to form an organism mixture. The absorbance of the organism mixture at 530 nm was adjusted to about 1.00 by adding saline. The spectrometer was calibrated with a saline blank. A 5 mL aliquot of the organism mixture was mixed together to produce the standardized mixed bacterial solution. Then, 40 g of each shampoo sample was inoculated with 0.2 mL of the standardized mixed bacterial solution and mixed. 1 g of the mixture was added to a sterile 20×150 mm screw cap test tube. 9 mL of sterile D/E neutralizer broth was added to the test tube and mixed to form a 10^−1 dilution. Serial dilutions were prepared through to a 10^−6 dilution with phosphate buffered water. The serial dilutions were plated onto Tryptic Soy Agar and incubated for 2 days at about 35 EC. Bacteria counts were performed after 21 days. Each cream sample in Table 5 below was tested by the procedure described in Example 1. A glyceryl monostearate (GMS) cream as described in Table 3 below was prepared as follows. The polyoxyethylene glyceryl monostearate, glyceryl monostearate, cetearyl alcohol, and myristyl propionate were mixed and heated to 60 EC in a first container. The glycerin and sterile deionized water were mixed and heated to 60 EC in a second container. The solution in the first container was poured into the second container. The second container was maintained at 60 EC for 10 minutes. The solution in the second container was allowed to cool. The pH of the solution was adjusted to pH 7 with sodium hydroxide to yield the GMS cream. The cream samples shown in Table 6 below were prepared by mixing the appropriate amounts of the preservatives and the GMS cream and heating the mixture to 50 EC for 10-15 minutes.

O=CC=Cc1ccccc1 [Cinnamaldehyde, cinnamaldehyde]
S. aureus, P. aeruginosa, and E. coli Day 0 ([1]; 0.05% in shampoo, Day 0, Example 7 Table 8): 3.0 × 10^6 cfu/g | S. aureus, P. aeruginosa, and E. coli Day 7 ([1]; 0.05% in shampoo, Day 7, Example 7 Table 8): 6.5 × 10^6 cfu/g | S. aureus, P. aeruginosa, and E. coli Day 14 ([1]; 0.05% in shampoo, Day 14, Example 7 Table 8): 1.0 × 10^7 cfu/g | S. aureus, P. aeruginosa, and E. coli Day 0 ([1]; 0.10% by weight in shampoo, Day 0, Table 3): 3.0 × 10^7 cfu/g | S. aureus, P. aeruginosa, and E. coli Day 7 ([1]; 0.10% by weight in shampoo, Day 7, Table 3): 1.0 × 10^1 cfu/g | S. aureus, P. aeruginosa, and E. coli Day 14 ([1]; 0.10% by weight in shampoo, Day 14, Table 3): <10 cfu/g | S. aureus, P. aeruginosa, and E. coli Day 0 ([1]; 0.10% in shampoo, Day 0, Example 7 Table 8): 3.0 × 10^6 cfu/g | S. aureus, P. aeruginosa, and E. coli Day 7 ([1]; 0.10% in shampoo, Day 7, Example 7 Table 8): 1.0 × 10^1 cfu/g | S. aureus, P. aeruginosa, and E. coli Day 14 ([1]; 0.10% in shampoo, Day 14, Example 7 Table 8): <10 cfu/g | S. aureus, P. aeruginosa, and E. coli Day 0 ([1]; 0.20% by weight in shampoo, Day 0, Table 3): 3.0 × 10^7 cfu/g | S. aureus, P. aeruginosa, and E. coli Day 7 ([1]; 0.20% by weight in shampoo, Day 7, Table 3): <10 cfu/g | S. aureus, P. aeruginosa, and E. coli Day 14 ([1]; 0.20% by weight in shampoo, Day 14, Table 3): <10 cfu/g | S. aureus, P. aeruginosa, and E. coli Day 0 ([1]; 0.25% by weight in shampoo, Day 0, Table 3): 3.0 × 10^7 cfu/g | S. aureus, P. aeruginosa, and E. coli Day 7 ([1]; 0.25% by weight in shampoo, Day 7, Table 3): <10 cfu/g | S. aureus, P. aeruginosa, and E. coli Day 14 ([1]; 0.25% by weight in shampoo, Day 14, Table 3): <10 cfu/g | Qb ([1]; For Day 7): 0.1% | Qb ([1]; For Day 14): 0.05% | MIC [2]: 125 µg/mL | S. aureus, P. aeruginosa, and E. coli Day 0 ([3]; 0.10% in GMS cream pH 7, Day 0): 3.0 × 10^7 cfu/g | S. aureus, P. aeruginosa, and E. coli Day 7 ([3]; 0.10% in GMS cream pH 7, Day 7): 4.0 × 10^4 cfu/g | S. aureus, P. aeruginosa, and E. coli Day 14 ([3]; 0.10% in GMS cream pH 7, Day 14): 9.3 × 10^5 cfu/g | S. aureus, P. aeruginosa, and E. coli Day 0 ([3]; 0.25% in GMS cream pH 7, Day 0): 3.0 × 10^7 cfu/g | S. aureus, P. aeruginosa, and E. coli Day 7 ([3]; 0.25% in GMS cream pH 7, Day 7): <10 cfu/g | S. aureus, P. aeruginosa, and E. coli Day 14 ([3]; 0.25% in GMS cream pH 7, Day 14): <10 cfu/g
